Patent US20080207532A1, “Use of Nordihydroguaiaretic Acid Derivatives in the Treatment of Drug Resistant Cancer, Viral and Microbial Infection” (Johns Hopkins University, priority 2004, published 2008)

Tests used:
MDR1 mRNA and Pgp = experiment: Dox induction of MDR1 gene expression in MCF-7 cells; type: cell-based, human; details: MCF-7, 0.05 μM Dox with 5.0 μM M4N, two days
Procedure: Total RNA was isolated using the Trizol Reagent (Invitrogen, Carlsbad, Calif.). RT-PCR was carried out with the Superscript II One-Step RT-PCR system with Platinum Taq DNA Polymerase (Invitrogen) according to the manufacturer's protocol using oligonucleotide primers specific for MDR1: […]
Cultured cells were incubated in a solution of 10 mM EDTA and 10 mM EGTA in PBS and then harvested by scraping with a Teflon® cell scraper. The cells were pelleted and lysed in modified RIPA buffer [50 mM Tris-HCl (pH 7.4), 1% NP-40, 0.25% Na-deoxycholate, 150 mM NaCl, 1 mM EDTA (pH 8.0)] containing Protease Inhibitor Cocktail (Sigma Chemical Co.). The lysate was cleared by centrifligation and protein concentrations were determined with the Bio-Rad Protein Assay (Bio-Rad Laboratories, Hercules, Calif.). Protein samples were separated by SDS-PAGE and electroblofted to a Hybond enhanced chemiluminescence (ECL) nitrocellulose membrane (Amersham) with a semidry blotting apparatus and detected as described in the instruction manual of the ECL Western Blotting System (Amersham). The antibodies used were primary rabbit polyclonal antibodies against Pgp and cyclin B and a horseradish […] conjugated secondary antibody (Santa Cruz Biotechnology). Relative band intensities were measured with ImageJ software. […]

MCF-7 xenografts = MCF-7 xenografts in nude mice, M4N i.p. or oral; type: in vivo; details: 21 days systemic treatment, IP injection daily or oral feeding in food balls
Procedure: MCF-7 cells (a human mammary carcinoma cell line, obtainable from the ATCC P.O. Box 1549, Manassas, Va. 20108) were seeded into 24-well plates at 1.5×10^4 cells/well in 500 μl of Dulbecco's modified Eagle's medium (DMEM) containing 10% fetal bovine serum (FBS) and the antibiotics penicillin and streptomycin. Varying concentrations of M4N were added the next day. After incubation for an additional 3 days, cell proliferation was assessed by the MTT assay. […] The mice were assigned to a treatment group that received M4N dissolved in a 6% Cremaphor EL, 6% ethanol and 88% saline, and to a control group that received the vehicle only. […] Mice received a single daily 100 μL intraperitoneal (i.p.) injection containing 2 mg of M4N for 3 weeks. The control mice received an equal volume of the vehicle. […] The results from the individual mice were combined and the average tumor volume was determined. Statistical significance of the mean differences in tumor volume was assessed by Student's t-test.

COc1ccc(C[C@@H](C)[C@@H](C)Cc2ccc(OC)c(OC)c2)cc1OC [M4N, tetra-o-methyl nordihydroguaiaretic acid]
induction of MDR1 expression by Dox (MDR1 mRNA and Pgp): abolished | tumor sizes of xenografts (MCF-7 xenografts): greatly reduced the tumor sizes
